Reference: patent US20110124614A1, “Methods And Compositions For The Treatment of Autoimmune Disorders” (priority 2008, published 2011)
Entries after “also recorded” stand apart in the source; their conditions may differ. Marks after values point to notes of the source that are not given here.

Key:
Type in all cases: in vivo, mouse
[1] = tested on: T cells of GPR30KO EAE mice; assay: Ex vivo T cell proliferation to mMOG-35-55, GPR30KO mice; settings: for T cell proliferation to mMog-35-55: Example IV
Experimental: (§1) Splenocytes and lymph node cells were harvested ex-vivo from G-1 and E2 implanted mice and cultured in a 96-well flat bottom tissue culture plate at 4×10^5 cells/well in stimulation medium in the presence of APC, irradiated (2500 rad) syngenic thymocytes at a ration of 1:10 (T:APCs) wither with or without mMog 35-55 peptide at varying concentrations. The cells were incubated for 3 days at 37° C. in 7% CO2 and pulsed with 0.5 μCi of [^3H] thymidine (Perkin-Elmer, Boston, Mass.) for the final 18 h of incubation. The cells were harvested onto glass fiber filters, and incorporated radioactivity was measured by a liquid scintillation counter. The cpm values (mean±SD) were calculated from triplicate wells. Stimulation index (SI) was calculated by dividing the experimental cpm by the control cpm.

EAE in wild-type B6 mice [2] = assay: EAE clinical scoring, G-1 vs E2 pellets at different doses, wild-type B6 mice (Example III); settings: for CDI / Daily / Mortality / Onset / Peak / Incidence: 34 days
EAE in PD-1KO mice = assay: EAE clinical scoring, G-1 or E2 pellets, PD-1KO mice (Example IX); settings: for protection against clinical EAE (in words): PD-1KO mice; for CDI / Daily / Mortality / Onset / Peak / Incidence: PD-1KO
[3] = tested on: CNS infiltration, demyelination and axonal damage in spinal cord of WT EAE mice; assay: Spinal cord histology (H&E, LFB-PAS, SMI312, SMI32), WT EAE mice; settings: for immune cell infiltration and demyelination in the CNS (H&E, LFB-PAS): WT mice of FIG. 2A experiment, FIG. 4 upper panels; for axons in the spinal cords (SMI312 staining) / axonal damage in spinal cord sections / SMI32 staining in white matter of spinal cords (ongoing axonal damage): WT mice; for axons in the spinal cords (SMI312 staining): FIG. 4 lower left panel; for axonal damage in spinal cord sections: FIG. 4 lower panels; for SMI32 staining in white matter of spinal cords (ongoing axonal damage): FIG. 4 lower right panel
Source text: Spinal cords were dissected out for histology. Intact spinal columns were removed and dissected after fixation in 4% paraformaldehyde, dehydrated and embedding in paraffin. To examine neuroinflammation, the sections were stained with hematoxylin and eosin (H&E). To examine demyelination, the sections were stained with Luxon fast blue plus periodic acid Schiff (LFB-PAS). The mice from the clinical experiment shown in FIG. 2A were euthanized at the end of the experiment and spinal cords were dissected out for histology. Intact spinal cords were removed and dissected after fixation in 4% paraformaldehyde, dehydrated and embedding in paraffin. To examine neuroinflammation, the sections were stained with hematoxylin and eosin (H&E). To examine demyelination, the sections were stained with Luxon fast blue plus periodic acid Schiff (LFB-PAS). To visualize axonal damage, spinal cords were fixed in 4% paraformaldehyde (maass/volume in PBS, pH 7.4) at 4° C. for at least 48 h. The spinal cords were dissected out from the columns, cut into sections 1-2 mm in length from the sampled thoracic or […] cords, dehydrated and embedded in paraffin blocks. Then, 10 μm thick sections were cut from paraffin blocks and mounted onto pre-cleaned microscope slides. The sections were dewaxed and rehydrated sequentially by xylene (2 min), gradient ethanol (100%, 95%, 85%, 2 min each) and PBS (5 min) and then cooked (120° C.) in antigen unmasking agent Trilogy® (Cell Marque, Hot Springs, Ark.) for 10 min in a pressure steamer. […] The slides were counterstained with hematoxylin for 30-60 s to visualize nuclei, washed with tap water, dehydrated, and mounted with Cytoseal™ XYL mounting medium (Richard-Allan Scientific, Kalamazoo, Mich.). The sections were analyzed by light microscopy after staining and recorded with a digital camera.

[4] = tested on: splenocytes and lymph node cells of WT EAE mice; assay: Ex vivo T cell proliferation to mMOG-35-55, WT mice; settings: for ex vivo T cell proliferation responses to mMog-35-55 peptide: G-1 and E2 implanted WT mice, FIG. 2C
Experimental: as §1

EAE in wild-type B6 mice [5] = assay: EAE clinical scoring, daily s.c. injection of G-1 or E2, wild-type B6 mice
EAE in GPR30KO mice = assay: EAE clinical scoring, G-1 or E2 pellets, GPR30KO mice (Example IV); settings: for CDI / Daily / Mortality / Onset / Peak / Incidence: GPR30KO
[6] = tested on: PD-L1 and PD-L2 expression; assay: PD-L1 and PD-L2 expression on APCs and T cells by flow cytometry (Example VIII); settings: treated WT EAE mice, FIG. 5C
[7] = 1.8 mg/40 day G-1 pellet, 20 days
[8] = G-1 injection, 20 μg/mouse/day s.c., 20 days
[9] = 1.8 mg/40 day G-1 pellet, 29 days
[10] = 2.5 mg/60 day E2 pellet, 20 days
[11] = E2 injection, 1 μg/mouse/day s.c., 20 days
[12] = 2.5 mg/60 day E2 pellet, 29 days

## CC(=O)c1ccc2c(c1)C1C=CCC1C(c1cc3c(cc1Br)OCO3)N2 (stereo not drawn) [G-1]
[1]
  T cell proliferation to mMog-35-55: Neither G-1 nor E2 affected
EAE in wild-type B6 mice [2]; 0.01 mg G-1 pellet
  CDI: 43.8 ± 39.9
  Daily: 1.8 ± 1.6
  Mortality: 0/6
  Onset: 13.6 ± 1.6
  Peak: 3.1 ± 1.7
EAE in wild-type B6 mice [2]; 0.01 mg/40 day release G-1 pellet
  Incidence: 5/6
EAE in wild-type B6 mice [2]; 0.1 mg G-1 pellet
  CDI: 18.8 ± 28.3
  Daily: 0.75 ± 1.3
  Mortality: 0/6
  Onset: 16.7 ± 2.3
  Peak: 1.5 ± 1.6
EAE in wild-type B6 mice [2]; 0.1 mg/40 day release G-1 pellet
  Incidence: 3/6
EAE in wild-type B6 mice [2]; 1.8 mg G-1 pellet
  CDI: 0**
  Daily: 0**
  Mortality: 0/7
  Peak: 0**
EAE in wild-type B6 mice [2]; 1.8 mg/40 day release G-1 pellet one week before immunization
  Incidence: 0/7**
EAE in wild-type B6 mice [2]; 1.8 mg/40 day release G-1 pellets
  protection from clinical EAE (in words): completely protected
EAE in wild-type B6 mice [2]; G-1 pellets 1.8, 0.1 or 0.01 mg/40 day release
  clinical EAE (in words), dose dependence: delayed and ameliorated EAE in a dose-dependent manner
EAE in wild-type B6 mice [2]; lower doses of G-1 pellets
  protection from clinical EAE compared with E2: less effective than E2
EAE in PD-1KO mice; G-1 1.8 mg/40 day pellet
  protection against clinical EAE (in words): failed to protect
EAE in PD-1KO mice; [7]
  CDI: 30.6 ± 9.1
  Daily: 2.7 ± 0.8
  Mortality: 1/5
  Onset: 13.8 ± 1.3
  Peak: 4.8 ± 0.6
EAE in PD-1KO mice; 1.8 mg/40 day release G-1 pellet, euthanized after 20 days
  Incidence: 5/5
[3]
  immune cell infiltration and demyelination in the CNS (H&E, LFB-PAS): markedly ameliorated; also recorded: reduced
  axons in the spinal cords (SMI312 staining): well preserved
  axonal damage in spinal cord sections: reduced the level of axonal damage
  SMI32 staining in white matter of spinal cords (ongoing axonal damage): much less SMI32 staining
[4]
  ex vivo T cell proliferation responses to mMog-35-55 peptide: neither G-1 nor E2 treatment significantly altered
EAE in wild-type B6 mice [5]; G-1 20 μg/mouse/day s.c. injections
  protection against EAE (in words): partially protective
EAE in wild-type B6 mice [5]; [8]
  CDI: 19.7 ± 11.3
  Daily: 2.7 ± 1.3
  Mortality: 1/8
  Onset: 13.7 ± 1.3
  Peak: 3.7 ± 1.6
EAE in wild-type B6 mice [5]; G-1 injection, 20 μg/mouse/day s.c., euthanized 20 days after immunization
  Incidence: 6/8
EAE in GPR30KO mice; G-1 1.8 mg/40 day pellet, GPR30KO mice
  protection against EAE (in words): completely ineffective
EAE in GPR30KO mice; [9]
  CDI: 59.9 ± 13.4
  Daily: 3.0 ± 0.7
  Mortality: 0/8
  Onset: 13.8 ± 1.2
  Peak: 4.5 ± 0.7
EAE in GPR30KO mice; 1.8 mg/40 day release G-1 pellet, concluded 29 days after immunization
  Incidence: 8/8
[6]
  PD-L1 expression on B cells and macrophages: upregulated
  expression of PD-L2: essentially no effect

## C[C@]12CC[C@@H]3c4ccc(O)cc4CC[C@H]3[C@@H]1CC[C@@H]2O [E2, 17β estradiol]
[1]; E2 treatment, FIG. 1C
  T-cell responses to MOG peptide: similarly reduced
[1]
  T cell proliferation to mMog-35-55: Neither G-1 nor E2 affected
EAE in wild-type B6 mice [2]; 0.025 mg E2 pellet
  CDI: 37.0 ± 21.6
  Daily: 1.7 ± 1.0
  Mortality: 0/5
  Onset: 14.8 ± 0.5
  Peak: 2.8 ± 1.6
EAE in wild-type B6 mice [2]; 0.025 mg/60 day release E2 pellet
  Incidence: 4/5
EAE in wild-type B6 mice [2]; 0.1 mg E2 pellet
  CDI: 9.1 ± 14.8
  Daily: 0.3 ± 0.6
  Mortality: 0/10
  Onset: 21.0 ± 6.1
  Peak: 0.8 ± 1.2
EAE in wild-type B6 mice [2]; 0.1 mg/60 day release E2 pellet
  Incidence: 3/10**
EAE in wild-type B6 mice [2]; 2.5 mg E2 pellet
  CDI: 0**
  Daily: 0**
  Mortality: 0/7
  Peak: 0**
EAE in wild-type B6 mice [2]; 2.5 mg/60 day release E2 pellet
  Incidence: 0/7**
EAE in wild-type B6 mice [2]; 2.5 mg/60 day release E2 pellets
  protection from clinical EAE (in words): completely protected
EAE in PD-1KO mice; E2 2.5 mg/60 day pellet
  protection against clinical EAE (in words): retained partial efficacy
EAE in PD-1KO mice; [10]
  CDI: 16.4 ± 6.3
  Daily: 1.5 ± 0.6
  Mortality: 0/5
  Onset: 16.4 ± 0.9
  Peak: 4.1 ± 0.8
EAE in PD-1KO mice; 2.5 mg/60 day release E2 pellet, 20 days
  Incidence: 5/5
[3]; E2-treated WT mice, Example II, FIG. 1B
  pathological signs of EAE in CNS (immune cell infiltration and demyelination): no pathological signs of EAE
[3]
  immune cell infiltration and demyelination in the CNS (H&E, LFB-PAS): markedly ameliorated
  axons in the spinal cords (SMI312 staining): well preserved
  axonal damage in spinal cord sections: reduced the level of axonal damage
  SMI32 staining in white matter of spinal cords (ongoing axonal damage): much less SMI32 staining
[4]; E2 treatment, WT mice, FIG. 1C
  T-cell responses to MOG peptide: similarly reduced
[4]
  ex vivo T cell proliferation responses to mMog-35-55 peptide: neither G-1 nor E2 treatment significantly altered
EAE in wild-type B6 mice [5]; E2 1 μg/mouse/day s.c. injections
  protection against EAE (in words): partially protective
EAE in wild-type B6 mice [5]; [11]
  CDI: 10.5 ± 13.9
  Daily: 2.3 ± 0.3
  Incidence: 3/8*
  Mortality: 1/8
  Onset: 15.3 ± 1.5
  Peak: 2.3 ± 2.9
EAE in GPR30KO mice; E2 2.5 mg/60 day pellet, GPR30KO mice
  protective effect against EAE (in words): only partially offset by the absence of GPR30
EAE in GPR30KO mice; [12]
  CDI: 17.2 ± 17.4
  Daily: 3.7 ± 1.3
  Mortality: 0/7
  Onset: 18.0 ± 1.4
  Peak: 2.5 ± 2.3
EAE in GPR30KO mice; 2.5 mg/60 day release E2 pellet, 29 days
  Incidence: 4/7
[6]
  PD-L1 expression on B cells and macrophages: upregulated
  expression of PD-L2: essentially no effect
